target: OGG1 (Homo sapiens (Human), UniProt O15527); test: In vitro OGG1 activity assay; type: biochemical; conditions: 800 pM OGG1 enzyme, 2 nM human APEX1, 10 nM 8-oxoA:C substrate
Procedure, shortened: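 Fluorescence-release assay on a duplex oligonucleotide carrying an OGG1 substrate base beside a fluorophore, quenched from the complementary strand. Excess APEX1 cleaves the abasic site left by base excision, melting the duplex and unquenching the fluorophore. Compounds in DMSO were dispensed before enzyme and substrate, and fluorescein signal was read.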

OGG1, sequence (O15527 whole entry): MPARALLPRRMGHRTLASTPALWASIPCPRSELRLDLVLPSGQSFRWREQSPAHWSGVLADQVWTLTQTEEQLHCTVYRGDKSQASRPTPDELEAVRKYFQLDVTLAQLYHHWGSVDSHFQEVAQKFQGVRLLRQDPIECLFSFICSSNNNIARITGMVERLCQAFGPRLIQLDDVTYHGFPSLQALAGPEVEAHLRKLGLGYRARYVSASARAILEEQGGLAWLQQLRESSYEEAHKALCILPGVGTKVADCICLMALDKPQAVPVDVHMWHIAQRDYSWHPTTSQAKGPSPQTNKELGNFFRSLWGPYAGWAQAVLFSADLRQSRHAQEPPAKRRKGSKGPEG

Row | IC50 [nM] | Compound
1 | 4790 | COc1ccc(NC(=O)N2CCC(n3c(=O)[nH]c4c(F)cccc43)CC2)cc1Cl [Example 182, N-(3-Chloro-4-methoxyphenyl)-4-(4-fluoro-2-oxo-2,3-dihydro-1H-1,3-benzodiazol-1-yl)piperidine-1-carboxamide]
2 | 1760 | Cc1ccc(NC(=O)[C@H]2CC[C@@H](n3c(=O)[nH]c4c(Br)cccc43)CC2)nc1 [Example 189, Cis-4-(4-bromo-2-oxo-2,3-dihydro-1H-1,3-benzodiazol-1-yl)-N-(5-methylpyridin-2-yl)cyclohexane-1-carboxamide]
3 | 226 | COc1cc(NC(=O)[C@H]2CC[C@@H](n3c(=O)[nH]c4c(NCC(F)(F)F)cccc43)CC2)ccc1C [Example 323, Cis-N-(3-methoxy-4-methylphenyl)-4-{2-oxo-4-[(2,2,2-trifluoroethyl)amino]-2,3-dihydro-1H-1,3-benzodiazol-1-yl}cyclohexane-1-carboxamide]
4 | 1760 | CCN(CC)C(=O)c1cnn(-c2cccc3c2[nH]c(=O)n3C2CCN(C(=O)Nc3ccc(I)cc3)CC2)c1 [Example 88, 4-{4-[4-(Diethylcarbamoyl)-1H-pyrazol-1-yl]-2-oxo-2,3-dihydro-1H-1,3-benzodiazol-1-yl}-N-(4-iodophenyl)piperidine-1-carboxamide]
5 | 196 | COc1cc(NC(=O)[C@H]2CC[C@@H](n3c(=O)[nH]c4cnccc43)CC2)ccc1C [Example 236, Cis-N-(3-methoxy-4-methylphenyl)-4-{2-oxo-1H,2H,3H-imidazo[4,5-c]pyridin-1-yl}cyclohexane-1-carboxamide]
6 | 6.79 | COc1cc(NC(=O)[C@H]2CC[C@@H](n3c(=O)[nH]c4c(C(=O)NCCNC(C)=O)cccc43)CC2)ccc1C [Example 253, Cis-4-{4-[(2-acetamidoethyl)carbamoyl]-2-oxo-2,3-dihydro-1H-1,3-benzodiazol-1-yl}-N-(3-methoxy-4-methylphenyl)cyclohexane-1-carboxamide]
7 | 218 | O=C(NCC(O)CO)c1cnn(-c2cccc3c2[nH]c(=O)n3C2CCN(C(=O)Nc3ccc(I)cc3)CC2)c1 (stereo not drawn) [Example 90, 4-(4-{4-[(2,3-Dihydroxypropyl)carbamoyl]-1H-pyrazol-1-yl}-2-oxo-2,3-dihydro-1H-1,3-benzodiazol-1-yl)-N-(4-iodophenyl)piperidine-1-carboxamide]
8 | 171 | COc1cc(NC(=O)[C@H]2CC[C@@H](n3c(=O)[nH]c4c(C(=O)N5CCN(CCN(C)C)CC5)cccc43)CC2)ccc1C [Example 275, Cis-4-(4-{4-[2-(dimethylamino)ethyl]piperazine-1-carbonyl}-2-oxo-2,3-dihydro-1H-1,3-benzodiazol-1-yl)-N-(3-methoxy-4-methylphenyl)cyclohexane-1-carboxamide]
9 | 22 | COc1cc(NC(=O)[C@H]2CC[C@@H](n3c(=O)[nH]c4c(NC(=O)c5coc(N)n5)cccc43)CC2)ccc1C [Example 320, 2-Amino-N-{2-oxo-1-[cis-4-[(3-methoxy-4-methylphenyl)carbamoyl]cyclohexyl]-2,3-dihydro-1H-1,3-benzodiazol-4-yl}-1,3-oxazole-4-carboxamide]
10 | 502 | O=C(Nc1ccc(I)cc1)N1CCCC(n2c(=O)[nH]c3c(Br)cccc32)CC1 (stereo not drawn) [Example 34, 4-(4-Bromo-2-oxo-2,3-dihydro-1H-1,3-benzodiazol-1-yl)-N-(4-iodophenyl)azepane-1-carboxamide]
11 | 0.21 | COc1cc(NC(=O)[C@H]2CC[C@@H](n3c(=O)[nH]c4c(C(=O)NCC5CCCN5)cccc43)CC2)ccc1C (stereo partly drawn) [Example 254, 2-Oxo-N-[(pyrrolidin-2-yl)methyl]-1-[cis-4-[(3-methoxy-4-methylphenyl)carbamoyl]cyclohexyl]-2,3-dihydro-1H-1,3-benzodiazole-4-carboxamide]
12 | 126 | COc1cc(NC(=O)[C@H]2CC[C@@H](n3c(=O)[nH]c4c(OCC(=O)O)cccc43)CC2)ccc1C [Example 242, 2-({2-Oxo-1-[cis-4-[(3-methoxy-4-methylphenyl)carbamoyl]cyclohexyl]-2,3-dihydro-1H-1,3-benzodiazol-4-yl}oxy)acetic acid]
13 | 50.6 | COc1cc(NC(=O)[C@H]2CC[C@@H](n3c(=O)[nH]c4c(S(=O)(=O)CC(=O)O)cccc43)CC2)ccc1C [Example 239, 2-({2-Oxo-1-[cis-4-[(3-methoxy-4-methylphenyl)carbamoyl]cyclohexyl]-2,3-dihydro-1H-1,3-benzodiazol-4-yl}sulfonyl)acetic acid]
14 | 118 | COc1cc(NC(=O)[C@H]2CC[C@@H](n3c(=O)[nH]c4c(OCCOC5CCCCC5)cccc43)CC2)ccc1C [Example 326, Cis-4-(4-(2-(cyclohexyloxy)ethoxy)-2-oxo-2,3-dihydro-1H-benzo[d]imidazol-1-yl)-N-(3-methoxy-4-methylphenyl)cyclohexanecarboxamide]
15 | 10.6 | COc1cc(NC(=O)[C@H]2CC[C@@H](n3c(=O)[nH]c4c(N5CCC(N)CC5)cccc43)CC2)ccc1C [Example 303, Cis-4-[4-(4-aminopiperidin-1-yl)-2-oxo-2,3-dihydro-1H-1,3-benzodiazol-1-yl]-N-(3-methoxy-4-methylphenyl)cyclohexane-1-carboxamide]
16 | 0.62 | COc1cc(NC(=O)[C@H]2CC[C@@H](n3c(=O)[nH]c4c(C(=O)NCCN)cccc43)CC2)ccc1C [Example 247, N-(2-Aminoethyl)-2-oxo-1-[cis-4-[(3-methoxy-4-methylphenyl)carbamoyl]cyclohexyl]-2,3-dihydro-1H-1,3-benzodiazole-4-carboxamide]
17 | 690 | COc1cc(NC(=O)N2CCC(n3c(=O)[nH]c4c(Cl)cccc43)CC2)ccc1C [Example 114, 4-(4-Chloro-2-oxo-2,3-dihydro-1H-1,3-benzodiazol-1-yl)-N-(3-methoxy-4-methylphenyl)piperidine-1-carboxamide]
18 | 2060 | COc1cc(NC(=O)N2CCC(n3c(=O)[nH]c4c(OC)cccc43)CC2)ccc1C [Example 116, 4-(4-Methoxy-2-oxo-2,3-dihydro-1H-1,3-benzodiazol-1-yl)-N-(3-methoxy-4-methylphenyl)piperidine-1-carboxamide]
19 | 2010 | O=c1[nH]c2c(Br)cccc2n1[C@H]1CC[C@@H](C(=O)Nc2cccc(Cl)c2)CC1 [Example 138, (Cis)-4-(4-bromo-2-oxo-2,3-dihydro-1H-1,3-benzodiazol-1-yl)-N-(3-chlorophenyl)cyclohexane-1-carboxamide]
20 | 175 | COc1ccc(NC(=O)[C@H]2CC[C@@H](n3c(=O)[nH]c4c(Br)cccc43)CC2)cc1C#N [Example 161, (Cis)-4-(4-bromo-2-oxo-2,3-dihydro-1H-1,3-benzodiazol-1-yl)-N-(3-cyano-4-methoxyphenyl)cyclohexane-1-carboxamide]
21 | 5810 | Cc1nc(NC(=O)N2CCC(n3c(=O)[nH]c4c(Br)cccc43)CC2)ccc1Cl [Example 111, 4-(4-Bromo-2-oxo-2,3-dihydro-1H-1,3-benzodiazol-1-yl)-N-(5-chloro-6-methylpyridin-2-yl)piperidine-1-carboxamide]
22 | 155 | COc1ccc(NC(=O)[C@H]2CC[C@@H](n3c(=O)[nH]c4c(F)cccc43)CC2)cc1F [Example 213, Cis-4-(4-fluoro-2-oxo-2,3-dihydro-1H-1,3-benzodiazol-1-yl)-N-(3-fluoro-4-methoxyphenyl)cyclohexane-1-carboxamide]
23 | 6920 | COc1ccc(NC(=O)N2CCC(n3c(=O)[nH]c4cc(C#N)ccc43)CC2)cc1Cl [Example 178, N-(3-Chloro-4-methoxyphenyl)-4-(5-cyano-2-oxo-2,3-dihydro-1H-1,3-benzodiazol-1-yl)piperidine-1-carboxamide]
24 | 39.1 | COc1cc(NC(=O)[C@H]2CC[C@@H](n3c(=O)[nH]c4c(N5CCC(NC(=O)C(C)(C)O)C5)cccc43)CC2)ccc1C (stereo partly drawn) [Example 317, Cis-4-{4-[3-(2-hydroxy-2-methylpropanamido)pyrrolidin-1-yl]-2-oxo-2,3-dihydro-1H-1,3-benzodiazol-1-yl}-N-(3-methoxy-4-methylphenyl)cyclohexane-1-carboxamide]
25 | 343 | COc1cc(NC(=O)[C@H]2CC[C@@H](n3c(=O)[nH]c4c(C(=O)N(C)C)cccc43)CC2)ccc1C [Example 260, N,N-Dimethyl-2-oxo-1-[cis-4-[(3-methoxy-4-methylphenyl)carbamoyl]cyclohexyl]-2,3-dihydro-1H-1,3-benzodiazole-4-carboxamide]
26 | 1810 | COc1cc(NC(=O)N2CCC(n3c(=O)[nH]c4c(-c5cccnc5)cccc43)CC2)ccc1C [Example 95, N-(3-methoxy-4-methylphenyl)-4-[2-oxo-4-(pyridin-3-yl)-2,3-dihydro-1H-1,3-benzodiazol-1-yl]piperidine-1-carboxamide]
27 | 540 | O=C(Nc1ccc(I)cc1)N1CCC(n2c(=O)[nH]c3c(O)cccc32)CC1 [Example 6, 4-(4-Hydroxy-2-oxo-2,3-dihydro-1H-1,3-benzodiazol-1-yl)-N-(4-iodophenyl)piperidine-1-carboxamide]
28 | 2630 | O=c1[nH]c2ccccc2n1[C@H]1CC[C@@H](C(=O)Nc2ccc(F)cc2)CC1 [Example 322, Cis-N-(4-fluorophenyl)-4-(2-oxo-2,3-dihydro-1H-benzo[d]imidazol-1-yl)cyclohexanecarboxamide]
29 | 3.94 | COc1cc(NC(=O)[C@H]2CC[C@@H](n3c(=O)[nH]c4c(C(=O)NCCN5CCNCC5)cccc43)CC2)ccc1C [Example 252, 2-Oxo-N-[2-(piperazin-1-yl)ethyl]-1-[cis-4-[(3-methoxy-4-methylphenyl)carbamoyl]cyclohexyl]-2,3-dihydro-1H-1,3-benzodiazole-4-carboxamide]
30 | 408 | Cc1cc(NC(=O)N2CCC(n3c(=O)[nH]c4c(-c5ccc(CO)nc5)cccc43)CC2)ccc1I [Example 81, 4-{4-[6-(Hydroxymethyl)pyridin-3-yl]-2-oxo-2,3-dihydro-1H-1,3-benzodiazol-1-yl}-N-(4-iodo-3-methylphenyl)piperidine-1-carboxamide]

Source: patent publication US11970474B2, “Substituted benzodiazoles and use thereof in therapy” (THOMAS HELLEDAYS STIFTELSE FÖR MEDICINSK FORSKNING, priority 2018, dated 2024)
